Test results as given in US9309283B2, “Prodrugs of peptide epoxy ketone protease inhibitors” (Onyx Therapeutics, Inc., priority 2012, dated 2016).
Blank lines part the entries; values can stand above or below the compound they belong to.

Legend:
[1] = target: i20s (Homo sapiens, UniProt P20618+P28062); experiment: Purified PI IC50, i20s; assay type: biochemical
[2] = target: c20s (Homo sapiens, UniProt P20618+P28074); experiment: Purified PI IC50, c20s; assay type: biochemical
[3] = Conversion of prodrugs by Human Liver S9; assay type: in vitro ADME
[4] = Buffer conversion rates of prodrugs to Compound B; assay type: physicochemical
[5] = Conversion to drug in human plasma (%) over time; assay type: in vitro ADME
[6] = Pharmacokinetic comparison of Compound A and prodrug in mouse; assay type: in vivo; conditions: dose 5 mg/kg

SMILES: COC[C@H](NC(=O)c1cnc(C)s1)C(=O)N[C@@H](COC)C(=O)N[C@@H](Cc1ccccc1)C(=O)[C@](C)(O)COS(=O)(=O)Cc1ccccc1 [drawing 371]
Purified PI IC50 Slope i20s ([1]; Table H): inactive

SMILES: COC[C@H](NC(=O)c1cnc(C)s1)C(=O)N[C@@H](COC)C(=O)N[C@@H](Cc1ccccc1)C(=O)[C@](C)(O)COC(C)=O
Purified PI IC50 Slope i20s ([1]; Table H): inactive | Purified PI IC50 60 minute point i20s ([1]; Table H): inactive | Purified PI IC50 Slope c20s ([2]; Table H): inactive | Purified PI IC50 60 minute point c20s ([2]; Table H): inactive

SMILES: COCCOCCOCCOCCOCCOCCOCCOCCn1cc(COCCCS(=O)(=O)OCC(C)(O)C(=O)[C@H](CC(C)C)NC(=O)[C@H](Cc2ccccc2)NC(=O)[C@H](CC(C)C)NC(=O)[C@H](CCc2ccccc2)NC(=O)CN2CCOCC2)nn1 (stereo partly drawn)
Conversion to drug in Human Plasma ([5]; 2 min): 2% | Conversion to drug in Human Plasma ([5]; 30 min): 18% | Conversion to drug in Human Plasma ([5]; 1 hr): 58% | Conversion to drug in Human Plasma ([5]; 2 hr): 90% | Conversion to drug in Human Plasma ([5]; 4 hr): 80%

SMILES: COC[C@H](NC(=O)c1cnc(C)s1)C(=O)N[C@@H](COC)C(=O)N[C@@H](Cc1ccccc1)C(=O)[C@](C)(O)COS(=O)(=O)Cc1ccccc1 [compound 23]
Buffer pH = 7.4 % Conversion @ 1 hour [4]: 9.6%

SMILES: COC[C@H](NC(=O)c1cnc(C)s1)C(=O)N[C@@H](COC)C(=O)N[C@@H](Cc1ccccc1)C(=O)[C@](C)(O)COS(=O)(=O)C1CCOCC1 [compound 22]
Buffer pH = 7.4 % Conversion @ 1 hour [4]: 9.8%

SMILES: CC(C)C[C@H](NC(=O)[C@H](CCc1ccccc1)NC(=O)CN1CCOCC1)C(=O)N[C@@H](Cc1ccccc1)C(=O)N[C@@H](CC(C)C)C(=O)[C@](C)(O)COC(=O)c1c(Cl)cccc1Cl
Purified PI IC50 Slope c20s ([2]; Table G, * = did not converge): inactive

SMILES: COC[C@H](NC(=O)c1cnc(C)s1)C(=O)N[C@@H](COC)C(=O)N[C@@H](Cc1ccccc1)C(=O)[C@](C)(O)COS(=O)(=O)c1ccc(C)cc1 [compound 21]
Buffer pH = 7.4 % Conversion @ 1 hour [4]: 20.3%

SMILES: COCCOCCOCCOCCC(=O)N/N=C(/[C@H](CC(C)C)NC(=O)[C@H](Cc1ccccc1)NC(=O)[C@H](CC(C)C)NC(=O)[C@H](CCc1ccccc1)NC(=O)CN1CCOCC1)[C@@]1(C)CO1
Purified PI IC50 Slope c20s ([2]; Table G, * = did not converge): inactive

SMILES: COC[C@H](NC(=O)c1cnc(C)s1)C(=O)N[C@@H](COC)C(=O)N[C@@H](Cc1ccccc1)C(=O)[C@](C)(O)COP(=O)(c1ccccc1)c1ccccc1
Purified PI IC50 Slope i20s ([1]; Table H): inactive | Purified PI IC50 60 minute point i20s ([1]; Table H): inactive | Purified PI IC50 Slope c20s ([2]; Table H): inactive | Purified PI IC50 60 minute point c20s ([2]; Table H): inactive

SMILES: COC[C@H](NC(=O)c1cnc(C)s1)C(=O)N[C@@H](COC)C(=O)N[C@@H](Cc1ccccc1)/C(=N/OC)[C@@]1(C)CO1
Purified PI IC50 Slope i20s ([1]; Table H): inactive | Purified PI IC50 60 minute point i20s ([1]; Table H): inactive | Purified PI IC50 Slope c20s ([2]; Table H): inactive

SMILES: CC(C)C[C@H](NC(=O)[C@H](CCc1ccccc1)NC(=O)CN1CCOCC1)C(=O)N[C@@H](Cc1ccccc1)C(=O)N[C@@H](CC(C)C)C(=O)[C@@]1(C)CO1 [Cmpd A, (S)-4-methyl-N—((S)-1-(((S)-4-methyl-1-((R)-2-methyloxiran-2-yl)-1-oxopentan-2-yl)amino)-1-oxo-3-phenylpropan-2-yl)-2-((S)-2-(2-morpholinoacetamido)-4-phenylbutanamido)pentanamide]
[Cmpd A] ([6]; time 1 hr): 0.008 µM | [Cmpd A] ([6]; time 4 hr): BLOQ | [Cmpd A] ([6]; time 6 hr): BLOQ | [Cmpd A] ([6]; time 24 hr): BLOQ

SMILES: CO/N=C(/[C@H](CC(C)C)NC(=O)[C@H](Cc1ccccc1)NC(=O)[C@H](CC(C)C)NC(=O)[C@H](CCc1ccccc1)NC(=O)CN1CCOCC1)[C@@]1(C)CO1
Purified PI IC50 Slope i20s ([1]; Table G, * = did not converge): inactive

SMILES: CC(C)C[C@H](NC(=O)[C@H](CCc1ccccc1)NC(=O)CN1CCOCC1)C(=O)N[C@@H](Cc1ccccc1)C(=O)N[C@@H](CC(C)C)/C(=N/OCC(=O)O)[C@@]1(C)CO1
Purified PI IC50 Slope i20s ([1]; Table G, * = did not converge): inactive | Purified PI IC50 Slope c20s ([2]; Table G, * = did not converge): inactive

SMILES: COC[C@H](NC(=O)c1cnc(C)s1)C(=O)N[C@@H](COC)C(=O)N[C@@H](Cc1ccccc1)C(=O)[C@](C)(O)COC(=O)c1c(Cl)cccc1Cl
Purified PI IC50 Slope i20s ([1]; Table H): inactive | Purified PI IC50 60 minute point i20s ([1]; Table H): inactive | Purified PI IC50 Slope c20s ([2]; Table H): inactive | Purified PI IC50 60 minute point c20s ([2]; Table H): inactive

SMILES: COCCOCCOCCOCCOCCOCCOCCOCCn1cc(CNC(=O)c2cccc(S(=O)(=O)OCC(C)(O)C(=O)[C@H](CC(C)C)NC(=O)[C@H](Cc3ccccc3)NC(=O)[C@H](CC(C)C)NC(=O)[C@H](CCc3ccccc3)NC(=O)CN3CCOCC3)c2)nn1 (stereo partly drawn)
Conversion to drug in Human Plasma ([5]; 2 min): 7% | Conversion to drug in Human Plasma ([5]; 30 min): 63% | Conversion to drug in Human Plasma ([5]; 1 hr): 100% | Conversion to drug in Human Plasma ([5]; 2 hr): 95% | Conversion to drug in Human Plasma ([5]; 4 hr): 80%

Results, then the compound that gave them:

Human Liver S9 % Conversion @ 1 hour [3]: 11%
SMILES: COC[C@H](NC(=O)c1cnc(C)s1)C(=O)N[C@@H](COC)C(=O)N[C@@H](Cc1ccccc1)C(=O)[C@@](C)(CI)OC(=O)CCCOC(C)=O [20-13]

Buffer pH = 7.4 % Conversion @ 1 hour [4]: 23%
SMILES: COC[C@H](NC(=O)c1cnc(C)s1)C(=O)N[C@@H](COC)C(=O)N[C@@H](Cc1ccccc1)C(=O)[C@](C)(O)CBr [20-3]

Human Liver S9 % Conversion @ 1 hour [3]: 14%
SMILES: CCOC(=O)O[C@](C)(CI)C(=O)[C@H](Cc1ccccc1)NC(=O)[C@H](COC)NC(=O)[C@H](COC)NC(=O)c1cnc(C)s1 [20-25]

Human Liver S9 % Conversion @ 1 hour [3]: 3%
SMILES: COC[C@H](NC(=O)c1cnc(C)s1)C(=O)N[C@@H](COC)C(=O)N[C@@H](Cc1ccccc1)C(=O)[C@@](C)(CI)OC(=O)CCCCSC(C)=O [20-10]

Buffer pH = 7.4 % Conversion @ 1 hour [4]: 0%
SMILES: COC[C@H](NC(=O)c1cnc(C)s1)C(=O)N[C@@H](COC)C(=O)N[C@@H](Cc1ccccc1)C(=O)[C@](C)(O)CCl [20-2]

Buffer pH = 7.4 % Conversion @ 1 hour [4]: 10.8%
SMILES: CCCCCCCCS(=O)(=O)OC[C@@](C)(O)C(=O)[C@H](Cc1ccccc1)NC(=O)[C@H](COC)NC(=O)[C@H](COC)NC(=O)c1cnc(C)s1 [20-8]

Buffer pH = 7.4 % Conversion @ 1 hour [4]: 24%
SMILES: COC[C@H](NC(=O)c1cnc(C)s1)C(=O)N[C@@H](COC)C(=O)N[C@@H](Cc1ccccc1)C(=O)[C@](C)(O)CI [20-1]

Buffer pH = 7.4 % Conversion @ 1 hour [4]: 21.2%
SMILES: COC[C@H](NC(=O)c1cnc(C)s1)C(=O)N[C@@H](COC)C(=O)N[C@@H](Cc1ccccc1)C(=O)[C@](C)(O)COS(=O)(=O)CC(F)(F)F [20-4]

Human Liver S9 % Conversion @ 1 hour [3]: 28%
SMILES: COC[C@H](NC(=O)c1cnc(C)s1)C(=O)N[C@@H](COC)C(=O)N[C@@H](Cc1ccccc1)C(=O)[C@@](C)(CI)OC(=O)OCc1ccc(OC(C)=O)cc1 [20-22]

Human Liver S9 % Conversion @ 1 hour [3]: 1%
SMILES: CCOC(=O)CCC(=O)O[C@](C)(CI)C(=O)[C@H](Cc1ccccc1)NC(=O)[C@H](COC)NC(=O)[C@H](COC)NC(=O)c1cnc(C)s1 [20-17]

Buffer pH = 7.4 % Conversion @ 1 hour [4]: 5.7%
SMILES: COC[C@H](NC(=O)c1cnc(C)s1)C(=O)N[C@@H](COC)C(=O)N[C@@H](Cc1ccccc1)C(=O)[C@](C)(O)COS(=O)(=O)CC(F)F [20-6]

Human Liver S9 % Conversion @ 1 hour [3]: 22%
SMILES: COC[C@H](NC(=O)c1cnc(C)s1)C(=O)N[C@@H](COC)C(=O)N[C@@H](Cc1ccccc1)C(=O)[C@@](C)(CI)OC(=O)CCl [20-23]

Human Liver S9 % Conversion @ 1 hour [3]: 24%
SMILES: CCOC(=O)C(=O)O[C@](C)(CI)C(=O)[C@H](Cc1ccccc1)NC(=O)[C@H](COC)NC(=O)[C@H](COC)NC(=O)c1cnc(C)s1 [20-16]

Human Liver S9 % Conversion @ 1 hour [3]: 30%
SMILES: COC[C@H](NC(=O)c1cnc(C)s1)C(=O)N[C@@H](COC)C(=O)N[C@@H](Cc1ccccc1)C(=O)[C@@](C)(CI)OC(=O)OCc1oc(=O)oc1C [20-15]

Buffer pH = 7.4 % Conversion @ 1 hour [4]: 13.2%
SMILES: COC[C@H](NC(=O)c1cnc(C)s1)C(=O)N[C@@H](COC)C(=O)N[C@@H](Cc1ccccc1)C(=O)[C@](C)(O)COS(=O)(=O)c1ccc(F)c(F)c1 [20-5]

Human Liver S9 % Conversion @ 1 hour [3]: 32%
SMILES: COC[C@H](NC(=O)c1cnc(C)s1)C(=O)N[C@@H](COC)C(=O)N[C@@H](Cc1ccccc1)C(=O)[C@@](C)(CI)OC(=O)Oc1ccccc1 [20-26]

Human Liver S9 % Conversion @ 1 hour [3]: 29%
SMILES: COC[C@H](NC(=O)c1cnc(C)s1)C(=O)N[C@@H](COC)C(=O)N[C@@H](Cc1ccccc1)C(=O)[C@@](C)(CI)OC=O [20-24]

Human Liver S9 % Conversion @ 1 hour [3]: 7%
SMILES: COC[C@H](NC(=O)c1cnc(C)s1)C(=O)N[C@@H](COC)C(=O)N[C@@H](Cc1ccccc1)C(=O)[C@@](C)(CI)OC(=O)COc1ccccc1 [20-19]

Buffer pH = 7.4 % Conversion @ 1 hour [4]: 4.2%
SMILES: CCCCS(=O)(=O)OC[C@@](C)(O)C(=O)[C@H](Cc1ccccc1)NC(=O)[C@H](COC)NC(=O)[C@H](COC)NC(=O)c1cnc(C)s1 [20-7]
